Where two headings read alike, the source gives them in different places.

These results are taken from paper PMC11247486, “Improving the In Vivo Stability of [^52Mn]Mn(II) Complexes with 18-Membered Macrocyclic Chelators for PET Imaging” (Journal of Medicinal Chemistry, 2024).

A short description of series [1]: Transmetalation (dissociation) kinetics of the Mn(II) complexes with Cu2+. As to conditions: 0.15 M NaCl, 25 °C; for log*KH: protonation constant of the *[Mn(HL)] intermediate. It counts as physicochemical. As to the method:
There is a wide consensus among the coordination chemistry community that kinetic inertness is more important for the safe use of metal complexes for imaging applications than thermodynamic stability.[8],[49],[50] Thus, we conducted a detailed investigation of the transmetalation kinetics of the Mn-PYAN and Mn-CHXPYAN complexes, by following their exchange reactions with Cu^2+ in the pH range of 2.5–4.5 (eq 3). [drawing 3] 3
All reactions were carried out in the presence of a large excess of Cu^2+ in order to guarantee the pseudo-first-order kinetic conditions. The transmetalation of Mn-PYAN in the pH range ∼2.0–4.5 is very fast, and thus the rates of the reactions were measured using the stopped-flow technique. Conversely, the exchange reactions of the Mn-CHXPYAN complex are slow and could be studied by using conventional methods. The transmetalation reactions of Mn-PYAN and Mn-CHXPYAN were monitored by following the formation of the corresponding Cu(II) complexes at 295 nm.
The kd values increase upon increase in [H^+] and are independent of the concentration of Cu^2+ as it was found for Mn-PCTA, Mn-PC3AM, and Mn-bispidine complexes.[49],[51] […] The increase in the kd values with increasing H^+ concentration can be interpreted in terms of the extremely slow spontaneous (k0, eq 4) and the proton-assisted (k*[Mn(HL), eq 6) dissociation of Mn(II) complexes. The saturation behavior of the plots of kd versus [H^+] (Figure 5) is characteristic for the equilibrium formation and the accumulation of the *[Mn(HL)] intermediate characterized by the *KH protonation constant (eq 5). The analysis of the rate constants obtained for Mn-CHXPYAN indicates a second-order dependence of kd on [H^+], which can be explained by the proton-assisted dissociation of the *[Mn(HL)] intermediate (k^H*[Mn(HL)], eq 7). [drawing 4] 4 [drawing 5] 5 [drawing 6] 6 [drawing 7] 7
In the presence of excess of the exchanging ion, the transmetalation can be treated as a pseudo-first-order process, and the rate of reactions can be expressed with eq 8, where kd is a pseudo-first-order rate constant and [MnL]t is the total concentration of the complex. [drawing 8] 8
Through consideration of all the possible pathways, the rate of the transmetalation of Mn-PYAN and Mn-CHXPYAN with Cu^2+ can be expressed by eq 9 [drawing 9] 9 Considering the total concentration of the Mn(II) complex ([MnL]t = [MnL] + [*Mn(HL)], as well as the equation defining the protonation constant for the formation of the *[Mn(HL)] intermediate (eq 5) and eq 8, the pseudo-first-order rate constant can be expressed as follows [drawing 10] 10 where k1 = k*[Mn(HL)] × *KH and k2 = k^H*[Mn(HL)] × *KH. The rate and protonation constants characterizing the transmetalation of Mn-PYAN and Mn-CHXPYAN with Cu^2+ have been calculated by fitting the kd values presented in Figure 5 to eq 10 and the values obtained are compared with the corresponding values of Mn-DOTA, Mn-DO3A, Mn-PCTA, Mn-PC3AM^H, and Mn-bispidine in Table 3.
Rates of the metal exchange reactions of Mn-PYAN and Mn-CHXPYAN with Cu^2+ were measured by spectrophotometry by following the formation of the related Cu(II) complexes at 295 nm with an Applied Photophysics DX-17MV stopped-flow instrument and PerkinElmer Lambda 365 UV–vis spectrophotometer using 1.0 cm cells, respectively. The concentration of Mn-PYAN and Mn-CHXPYAN was 1.0 × 10^–4 M, whereas the concentration of Cu^2+ was 10 and 20 times higher in order to guarantee pseudo-first-order conditions. The temperature was maintained at 25 °C and the ionic strength of the solutions was kept constant with 0.15 M NaCl. The exchange rates were studied in the pH range of ca. 2.0–4.5. To keep the pH values constant, monochloroacetic acid (pH range 2.0–3.3), 1,4-dimethylpiperazine (pH range 3.3–4.1), and N-methylpiperazine (pH range 4.1–4.5) buffers were used (0.01 M). […]

A short description of series [2]: pH-potentiometric titrations, ligand protonation constants. It counts as physicochemical. Conditions: 0.15 M NaCl, 25°C. As to the method:
Chelator protonation constants (log Ki^H) defined by eq 1 were determined using pH-potentiometric titrations, which afforded four protonation constants for each chelator attributed to the protonation of the amine N atoms (Table 2, and standard deviations are shown in parentheses). [drawing 1] 1 where i = 1, 2...4. The first two protonation constants adopt nearly identical values for both chelators, while the third and fourth protonation constants are much lower for CHXPYAN than for PYAN, which is consistent with the results obtained by Jackels et al.[25] The high rigidity of CHXPYAN likely forces the protonated amines to be placed at a shorter distance than in PYAN, reducing the values of log K3^H and log K4^H for the cyclohexyl derivative due to electrostatic effects. […] The structurally related 18-membered macrocycle 18-ane-N6 is characterized by a higher basicity compared with PYAN and CHXPYAN, as expected due to the increased number of amine N atoms and its higher flexibility.[43]
(§1) The protonation constants of PYAN and CHXPYAN and the stability constants of Mn(II) complexes were determined by pH-potentiometric titrations. The metal-to-ligand concentration ratio was 1:1 (the concentration of the ligand was generally 0.002 M). For the pH measurements and titrations, a Metrohm 888 Titrando titration workstation and Metrohm-6.0234.110 combined electrode was used. Equilibrium measurements were carried out at a constant ionic strength (0.15 M NaCl) in 6 mL samples at 25 °C. The solutions were stirred, and N2 was bubbled through them. The titrations were made in the pH range of 1.7–12.0. KH-phthalate (pH = 4.005) and borax (pH = 9.177) buffers were used to calibrate the pH meter. For the calculation of [H^+] from the measured pH values, the method proposed by Irving et al. was used as follows.[59] A 0.01 M HCl solution was titrated with a standardized NaOH solution at 0.15 M NaCl ionic strength. The differences (A) between the measured (pHread) and calculated pH (−log[H^+]) values were used to obtain the equilibrium H^+ concentration from the pH values measured in the titration experiments (A = 0.04). For the equilibrium calculations, the stoichiometric water ionic product (pKw) was also needed to calculate the [OH^–] values under basic conditions. The VNaOH – pHread data pairs of the HCl–NaOH titration obtained in the pH range of 10.5–12.0 were used to calculate the pKw value (pKw = 13.77). The protonation and stability constants were calculated with the PSEQUAD program.[60]

The conditions of series [3]: cited from earlier work.
A short description of series [4]: pH-potentiometric titrations, stability constants of the Mn(II) complexes. As to conditions: 0.15 M NaCl, 25°C; for pMn: pMn = −log[Mn]free when [Mn^2+] = [L] = 10 μM at pH = 7.4; for log KMnL: stability constant of the Mn(II) complex. It counts as physicochemical. How it is done: The stability constants of the Mn(II) complexes with PYAN and CHXPYAN defined by eq 2 were also determined through pH-potentiometric titrations. [drawing 2] 2
as §1

The conditions of series [5]: cited from earlier work. The source holds these as a separate data set.
Series [6] in a line: 1H NMR relaxometry (relaxivity as a function of pH). As to conditions: pH 3, 61 MHz, 25 °C, after dissociation of the complexes. It counts as physicochemical. From the text:
The studies reported by Branco assumed the formation of a protonated [Mn(HL)]^3+ species for the Mn-PYAN complex characterized by protonation constant log KMnLH = 5.19 (KMnLH = [MnHL]/[MnL] × [H^+]).[42] However, our pH-potentiometric data could be fitted very well without considering the formation of protonated species or hydroxo-complexes. In order to confirm that the equilibrium model used to fit the pH-potentiometric data was correct, we measured the relaxivity (r1p) of aqueous solutions of the complexes as a function of pH (Figure 4). Relaxivity measures the ability of a paramagnetic solute to enhance the longitudinal relaxation rate of solvent water molecules, normalized for a 1 mM concentration of the paramagnetic ion.[45] The r1p values measured around neutral pH values (0.83 and 1.40 mM^–1 s^–1 at 61 MHz and 25 °C for Mn-PYAN and Mn-CHXPYAN, respectively) are typical of complexes that lack one or more water molecules in the inner coordination sphere, the observed relaxivity being the result of the outer-sphere contribution.[46] Relaxivity is fairly constant in the pH range of 6–9 but increases below pH ∼ 6 due to complex dissociation, reaching a relaxivity of 6.00 mM^–1 s^–1 at pH 3, 61 MHz, and 25 °C that is characteristic of the [Mn(H2O)6]^2+ complex.[47] The relaxivity profile matches the speciation diagrams calculated using the equilibrium constants obtained by pH potentiometry very well, which provides support for the equilibrium model used to fit the potentiometric data. It is worth noting that complex dissociation takes place at a lower pH for Mn-CHXPYAN than for Mn-PYAN, as expected, considering their pMn values.
The relaxivity values were calculated from the longitudinal relaxation time of H2O protons (T1) measured at 61 MHz on a Stelar relaxometer connected to a Bruker WP80 NMR electromagnet adapted to variable-field measurements (15–80 MHz proton Larmor frequency). […] The longitudinal relaxation time was measured with the “inversion recovery” method (180°–τ–90°) by using 12 different τ values with a typical 90° pulse width of 10.7 μs, 4 scans. […]

On to `c1cc2nc(c1)CN[C@@H]1CCCC[C@H]1NCc1cccc(n1)CN[C@@H]1CCCC[C@H]1NC2` [CHXPYAN, (4^1R,4^2R,10^1R,10^2R)-3,5,9,11-tetraaza-1,7(2,6)-dipyridina-4,10(1,2)-dicyclohexanacyclododecaphane], for which, in series [1] (Mn(II) complex of the chelator), the k1 is recorded as 0.23 ± 0.03 M^–1 s^–1, the k2 result is given as “(6.4 ± 0.8) × 10^3 M^–2 s^–1” and the “kd at pH = 7.4” value is listed as 9.0 × 10^–9 s^–1. Further, in series [1], the “log*KH” value is 3.33 (5). In series [2], the “log K1^H” value is recorded as 9.16(2), the “log K2^H” value was 8.27(2), the “log K3^H” value is recorded as 4.55(2) and the “log K4^H” value was 2.54(3). The “log KMnL” value in series [3] (0.2 M KNO3) was around 13. Moreover, in series [4], the pMn was 7.41 and the “log KMnL” value is recorded as 12.51(3). Besides, in series [5] (0.2 M KNO3), the “log K1^H” value is on record as 9.25, the “log K2^H” value is reported as 8.57, the “log K3^H” value was 4.75 and the “log K4^H” value is reported as 4.03.

Consider `c1cc2nc(c1)CNCCNCc1cccc(n1)CNCCNC2` [PYAN, 3,6,10,13-tetraaza-1,8(2,6)-dipyridinacyclotetradecaphane], for which, in series [1] (Mn(II) complex of the chelator), the k1 is listed as 827 ± 54 M^–1 s^–1 and the “kd at pH = 7.4” value was 3.3 × 10^–5 s^–1. Further, in series [1], the “log*KH” value is listed as 2.23 (4). Also, in series [2], the “log K1^H” value is given as 9.02(1), the “log K2^H” value was 8.27(1), the “log K3^H” value is 6.06(1) and the “log K4^H” value is 5.18(2). In addition, in series [3] (0.1 M KNO3), the “log KMnL” value is on record as 11.79. In series [3] (0.2 M KCl), the “log KMnL” value is 12.5. For the same compound, in series [4], the pMn worked out at 7.18 and the “log KMnL” value is recorded as 11.93(3). Besides, in series [5] (0.1 M KNO3), the “log K1^H” value is reported as 8.99, the “log K2^H” value is 8.22, the “log K3^H” value was 6.03 and the “log K4^H” value is listed as 5.34. Moreover, in series [5] (0.2 M KCl), the “log K1^H” value was 9.13, the “log K2^H” value is recorded as 8.32, the “log K3^H” value was 6.12 and the “log K4^H” value is listed as 5.24.

As to `O.O.O.O.O.O.[Mn+2]` [[Mn(H2O)6]^2+], the relaxivity in series [6] is reported as 6.00 mM^–1 s^–1.
